US20240383904A1, “HETEROCYCLIC COMPOUNDS” (Hoffmann-La Roche Inc., priority 2021, published 2024)

target: T1, MAGL (Homo sapiens, UniProt Q99685); experiment: 2-AG assay: MAGL inhibitory activity by hydrolysis of 2-arachidonoylglycerol to arachidonic acid, followed by mass spectrometry; format: biochemical; conditions: 15 min preincubation, 30 min reaction at RT, 8 μM 2-arachidonoylglycerol
T1 sequence (Q99685 1-303): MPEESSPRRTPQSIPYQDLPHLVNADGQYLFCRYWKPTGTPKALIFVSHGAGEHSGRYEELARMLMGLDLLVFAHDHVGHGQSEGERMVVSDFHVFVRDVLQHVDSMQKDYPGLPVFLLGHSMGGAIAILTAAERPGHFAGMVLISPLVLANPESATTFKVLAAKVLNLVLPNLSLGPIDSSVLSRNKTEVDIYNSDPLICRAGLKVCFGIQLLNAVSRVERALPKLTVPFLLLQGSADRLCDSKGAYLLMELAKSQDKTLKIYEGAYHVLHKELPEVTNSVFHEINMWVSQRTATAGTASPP
Description: Compounds of formula (I) were profiled for MAGL inhibitory activity by determining the enzymatic activity by following the hydrolysis of the natural substrate 2-arachidonoylglycerol (2-AG) resulting in arachidonic acid, which can be followed by mass spectrometry. This assay is hereinafter abbreviated “2-AG assay”.
Compounds of formula (I) were profiled for MAGL inhibitory activity by determining the enzymatic activity by following the hydrolysis of the natural substrate 2-arachidonoylglycerol (2-AG) resulting in arachidonic acid, which can be followed by mass spectrometry. This assay is hereinafter abbreviated “2-AG assay”. The 2-AG assay was carried out in 384 well polypropylene assay plates. Compound dilutions were made in 100% DMSO in a polypropylene plate in 3-fold dilution steps to give a final concentration range in the assay from 12.5 μM to […]. Compound dilutions were added to MAGL protein in assay buffer (50 mM TRIS, 1 mM EDTA, 0.01% (v/v) Tween-20, 2.5% (v/v) DMSO). After shaking, the plate was incubated for 15 min at RT. To start the reaction, 2-arachidonoylglycerol in assay buffer was added. The final concentrations in the assay was […] for MAGL protein and 8 μM 2-arachidonoylglyerol. After shaking and 30 min incubation at RT, the reaction was quenched by the addition of two assay volumes of acetonitrile containing 4 μM of d8-arachidonic acid. The amount of arachidonic acid formed was traced by an online SPE system (Agilent Rapidfire) coupled to a triple quadrupole mass spectrometer. A C18 SPE cartridge (Agilent G9205A) was used in an acetonitrile/water liquid setup. The mass spectrometer was operated in negative electrospray mode following the mass transitions 303.1→259.1 for arachidonic acid and 311.1→267.0 for d8-arachidonic acid. The activity of the compounds was calculated based on the ratio of intensities [arachidonic acid/d 8-arachidonic acid].

Row | Compound | IC50 [nM]
1 | 2-[6-[[6- (trifluoromethyl)pyrida- zin-3-y1]methyl]-2- azaspiro[3.3]heptane-2- carbonyl]-2,5- diazaspiro[3.4]octan-6- one [Example 12] | 36.4
2 | CS(=O)(=O)c1ccc(C[C@@H]2CCC3(C2)CN(C(=O)N2CC4(COCC(=O)N4)C2)C3)cc1 (single isomer, unassigned) [Example 73] | 80.2
3 | CS(=O)(=O)c1ccc(C[C@H]2CCC3(C2)CN(C(=O)N2CC4(COCC(=O)N4)C2)C3)cc1 (single isomer, unassigned) [Example 74] | 77.7
4 | O=C1NC2(CO1)CN(C(=O)N1CC3(CC[C@H](Oc4cnc(C(F)(F)F)cn4)C3)C1)C2 (single isomer, unassigned) [Example 100] | 3.42
5 | O=C1NC2(CO1)CN(C(=O)N1CC3(CCC(Oc4cnc(C(F)(F)F)cn4)C3)C1)C2 (single isomer, unassigned) [Example 104] | 2.85
6 | N=[S@@](=O)(c1ccc(CC2CC3(C2)CN(C(=O)N2CC4(CCCC(=O)N4)C2)C3)cc1)C(F)(F)F (single isomer, unassigned) [Example 284, 2-[6-[[4-(trifluoromethylsulfoni-midoyl)phenyl]methyl]-2-azaspiro[3.3]heptane-2-carbonyl]-2,5-diazaspiro[3.5]nonan-6-one] | 120
7 | N=[S@@](=O)(c1ccc(CC2CC3(C2)CN(C(=O)N2CC4(CCCC(=O)N4)C2)C3)cc1)C(F)(F)F (single isomer, unassigned) [Example 287, 2-[6-[[4-(trifluoromethylsulfoni-midoyl)phenyl]methyl]-2-azaspiro[3.3]heptane-2-carbonyl]-2,5-diazaspiro[3.5]nonan-6-one] | 437
8 | O=C1NC2(CO1)CN(C(=O)N1CC3(CC(Cc4cnc(C(F)(F)F)cn4)C3)C1)C2 [Example 5, 2-[6-[[5-(trifluoromethyl)pyrazin-2-y1]methyl]-2-azaspiro[3.3]heptane-2-carbonyl]-7-oxa-2,5-diazaspiro[3.4]octan-6-one] | 1.15
9 | CS(=O)(=O)c1ccc(CC2CC3(C2)CN(C(=O)N2CC4(CCC(=O)N4)C2)C3)cc1 [Example 8, 2-[6-(4-mesylbenzyl)-2-azaspiro[3.3]heptane-2-carbonyl]-2,5-diazaspiro[3.4]octan-6-one] | 15.1
10 | CS(=O)(=O)c1cccc(CC2CC3(C2)CN(C(=O)N2CC4(CCC(=O)N4)C2)C3)c1 [Example 9, 2-[6-(3-mesylbenzyl)-2-azaspiro[3.3]heptane-2-carbonyl]-2,5-diazaspiro[3.4]octan-6-one] | 20.5
11 | CS(=O)(=O)c1cc(F)cc(CC2CC3(C2)CN(C(=O)N2CC4(CCC(=O)N4)C2)C3)c1 [Example 10, 2-[6-(3-fluoro-5-mesyl-benzyl)-2-azaspiro[3.3]heptane-2-carbonyl]-2,5-diazaspiro[3.4]octan-6-one] | 24.5
12 | CS(=O)(=O)c1ccc(CC2CC3(C2)CN(C(=O)N2CC4(COC(=O)N4)C2)C3)cc1 [Example 13, 2-[6-(4-mesylbenzyl)-2-azaspiro[3.3]heptane-2-carbonyl]-7-oxa-2,5-diazaspiro[3.4]octan-6-one] | 0.93
13 | CS(=O)(=O)c1cc(F)ccc1CC1CC2(C1)CN(C(=O)N1CC3(COC(=O)N3)C1)C2 [Example 15, 2-[6-(4-fluoro-2-mesyl-benzyl)-2-azaspiro[3.3]heptane-2-carbonyl]-7-oxa-2,5-diazaspiro[3.4]octan-6-one] | 0.3
14 | N#Cc1cc(CC2CC3(C2)CN(C(=O)N2CC4(CNC(=O)N4)C2)C3)ccc1C(F)(F)F [Example 17, 5-[[2-(6-keto-2,5,7-triazaspiro[3.4]octane-2-carbonyl)-2-azaspiro[3.3]heptan-6-yl]methyl]-2-(trifluoromethyl)benzoni-trile] | 3.29
15 | N#Cc1cc(CC2CC3(C2)CN(C(=O)N2CC4(COC(=O)N4)C2)C3)ccc1C(F)(F)F [Example 18, 5-[[2-(6-keto-7-oxa-2,5-diazaspiro[3.4]octane-2-carbonyl)-2-azaspiro[3.3]heptan-6-yl]methyl]-2-(trifluoromethyl)benzoni-trile] | 0.02
16 | O=C1NC2(CO1)CN(C(=O)N1CC3(CC(Cc4ccc(Cl)cn4)C3)C1)C2 [Example 20, 2-[6-[(5-chloro-2-pyridyl)methyl]-2-azaspiro[3.3]heptane-2-carbonyl]-7-oxa-2,5-diazaspiro[3.4]octan-6-one] | 0.31
17 | O=C1NC2(CO1)CN(C(=O)N1CC3(CC(Cc4cccc(S(=O)(=O)C(F)(F)F)c4)C3)C1)C2 [Example 21, 2-[6-(3-triflylbenzyl)-2-azaspiro[3.3]heptane-2-carbonyl]-7-oxa-2,5-diazaspiro[3.4]octan-6-one] | 0.01

The remaining lines, values ahead:

Row | IC50 [nM] | Compound
18 | 0.91 | N=S(=O)(c1cccc(CC2CC3(C2)CN(C(=O)N2CC4(CCC(=O)N4)C2)C3)c1)C(F)(F)F (stereo not drawn) [Example 1]
19 | 2.15 | N=S(=O)(c1ccc(CC2CC3(C2)CN(C(=O)N2CC4(CCC(=O)N4)C2)C3)cc1)C(F)(F)F (stereo not drawn) [Example 2, 2-[6-[4-(trifluoromethylsulfoni-midoyl)benzyl]-2-azaspiro[3.3]heptane-2-carbonyl]-2,5-diazaspiro[3.4]octan-6-one]
20 | 2.85 | O=C1CCC2(CN(C(=O)N3CC4(CC(Cc5ccc(C(F)(F)F)nc5)C4)C3)C2)N1 [Example 3, 2-[6-[[6-(trifluoromethyl)-3-pyridyl]methyl]-2-azaspiro[3.3]heptane-2-carbonyl]-2,5-diazaspiro[3.4]octan-6-one]
21 | 11.2 | O=C1CCC2(CN(C(=O)N3CC4(CC(Cc5cnc(C(F)(F)F)cn5)C4)C3)C2)N1 [Example 4, 2-[6-[[5-(trifluoromethyl)pyrazin-2-yl]methyl]-2-azaspiro[3.3]heptane-2-carbonyl]-2,5-diazaspiro[3.4]octan-6-one]
22 | 0.47 | O=C1CCC2(CN(C(=O)N3CC4(CC(Cc5ccc(OC(F)(F)F)cn5)C4)C3)C2)N1 [Example 6, 2-[6-[[5-(trifluoromethoxy)-2-pyridyl]methyl]-2-azaspiro[3.3]heptane-2-carbonyl]-2,5-diazaspiro[3.4]octan-6-one]
23 | 0.35 | O=C1CCC2(CN(C(=O)N3CC4(CC(Cc5ncc(C(F)(F)F)cc5F)C4)C3)C2)N1 [Example 7, 2-[6-[[3-fluoro-5-(trifluoromethyl)-2-pyridyl]methyl]-2-azaspiro[3.3]heptane-2-carbonyl]-2,5-diazaspiro[3.4]octan-6-one]
24 | 31.2 | O=C1CCC2(CN(C(=O)N3CC4(CC(Cc5cnc(C(F)(F)F)nc5)C4)C3)C2)N1 [Example 11, 2-[6-[[2-(trifluoromethyl)pyrimi-din-5-y1]methyl]-2-azaspiro[3.3]heptane-2-carbonyl]-2,5-diazaspiro[3.4]octan-6-one]
25 | 0.84 | O=C1NC2(CO1)CN(C(=O)N1CC3(CC(Cc4ccc(C(F)(F)F)nc4)C3)C1)C2 [Example 14, 2-[6-[[6-(trifluoromethyl)-3-pyridyl]methyl]-2-azaspiro[3.3]heptane-2-carbonyl]-7-oxa-2,5-diazaspiro[3.4]octan-6-one]
26 | 0.09 | N#Cc1cc(CC2CC3(C2)CN(C(=O)N2CC4(CCC(=O)N4)C2)C3)ccc1C(F)(F)F [Example 16, 5-[[2-(6-keto-2,5-diazaspiro[3.4]octane-2-carbonyl)-2-azaspiro[3.3]heptan-6-yl]methyl]-2-(trifluoromethyl)benzoni-trile]
27 | 7 | O=C1CCC2(CN(C(=O)N3CC4(CC(Cc5ncc(C(F)(F)F)cn5)C4)C3)C2)N1 [Example 19, 2-[6-[[5-(trifluoromethyl)pyrimi-din-2-yl]methyl]-2-azaspiro[3.3]heptane-2-carbonyl]-2,5-diazaspiro[3.4]octan-6-one]

same assay, conditions: unit nM

Row | IC50 [nM] | Compound
28 | < 5 | O=C1NC2(CO1)CN(C(=O)N1CC3(CC(Cc4ccc(F)cc4C(F)(F)F)C3)C1)C2 [Example 22, 2-[6-[4-fluoro-2-(trifluoromethyl)benzyl]-2-azaspiro[3.3]heptane-2-carbonyl]-7-oxa-2,5-diazaspiro[3.4]octan-6-one]
29 | < 5 | O=C1NC2(CO1)CN(C(=O)N1CC3(CC(Cc4ccc(F)cc4F)C3)C1)C2 [Example 23, 2-[6-(2,4-difluorobenzyl)-2-azaspiro[3.3]heptane-2-carbonyl]-7-oxa-2,5-diazaspiro[3.4]octan-6-one]
30 | < 5 | O=C1NC2(CO1)CN(C(=O)N1CC3(CC(Cc4ccc(C(F)(F)F)cc4F)C3)C1)C2 [Example 24, 2-[6-[2-fluoro-4-(trifluoromethyl)benzyl]-2-azaspiro[3.3]heptane-2-carbonyl]-7-oxa-2,5-diazaspiro[3.4]octan-6-one]
